Marks after values point to notes of the source that are not given here.
Columns and labels:
mice [1] = test: Hyperkinesis induced by 5-oxytryptophan (negative symptoms of schizophrenia); assay type: in vivo; conditions: for Number of shakings: mice, 5-oxytryptophan 300 mg/kg i.p.
Method: Studies have been conducted on white outbred male mice (18-24 g), in comparison with the olanzapine (Zyprexa) with intraperitoneal injection.
Phenotropil in all studied doses reduced hyperkinesia (head shakings): at doses of 100 mg/kg—by 88%, at 200 mg/kg—by 87%, and at 300 mg/kg—by 89%. […] Effect of Phenotropil on serotonergic system requires more detailed testing and studies of lower doses, since there is no reason to exclude neuroleptic activity in this test. Preventive or proactive (protective) use of lower doses may be appropriate also in dopaminergic pathology.

[2] = Plasma electrolyte balance at course administration; assay type: in vivo; conditions: rats
HSP70 = HSP70 expression in the myocardium (Western blot); assay type: in vivo, rats; conditions: for increase of NSP70 level in the myocardium vs Ns control: negative stress state; for increase of NSP70 content in the heart vs untreated control: no stress; for HSP 70 in myocardium: Wistar rats
Source text: Determination of NSP70 (ng/mg of total protein) was studied in myocardial preparations by Western blot analysis; the results are presented in Table 14.1.

patients = test: Topical solution on periodontal, enamel and dentin condition; assay type: in vivo, human; conditions: for Efficacy on a 4-point scale (periodontal, enamel and dentin condition): humans, topical
Source text: (§1) Studies of the effects of Phenotropil on condition of paradontium, enamel and dentin with topic application involved men and women (45-54 years) diagnosed with periodontitis, parodontosis and caries. Enrollment of groups by separate indicators in this age failed. In the vast majority of subjects, the diseases were combined. The gender ratio in groups was: 30.0% men and 70.0% women, the ratio of smokers to non-smokers 60:40, the number of female smokers was higher than male smokers by 35.0%. All patients received every three days the required amount of 0.1%, 0.2% or 0.3% solution of Phenotropil or placebo. The solutions were applied daily as dental trays (for 30 sec.) in the morning and evening at 30 ml per application for 30 days. Food and drinks intake, including water, were not recommended for 2 hours after the procedure. All patients underwent a dental check-up and standard hygienic treatment with removing plaque and dental scale and lavaging the gingival pockets with 1% Phenotropil solution. For each subject, the studied parameters were recorded; the aggregate integral indicator of the general periodontal condition of enamel and dentin was calculated, in the negative scores. The examinations were conducted once a week throughout the period of monotherapy. Simultaneous studies were conducted for evaluation of lipid peroxidation state in samples of saliva, at the baseline examination and after the course of therapy.
The positive effect of treatment with Phenotropil was observed after about 14 days and intensified in the course of therapy. Efficacy after one month of treatment with the drug was the highest and most evident at the initial stages of disease and moderate severity of […]. Effect on periodontitis was apparent, but less pronounced. Treatment of periodontitis probably requires a longer course and administration of Phenotropil tablets according to the usual regime to modulate the general functional state of the body. The ranking evaluation of efficacy (0—no effect, 1—slightly pronounced effect below 30.0% in the group, 2—average degree of efficacy from 30.0 to 50.0%, 3—high efficacy, above 50.0%) was established by an integral indicator of the aggregate of all the parameters tested.

mice [3] = test: Benzedrine-induced stimulation of orientation-locomotor activity; assay type: in vivo
Source text: In regard to influencing the effects of Benzedrine, Phenotropil also can provide, depending on the dose, the diametrically opposite activity when in combination with psychostimulants. This fact must be taken into account in combined use of various pharmacological agents.

mice [4] = test: Duration of swimming in cold (2° C.) and normal (25° C.) water; assay type: in vivo; conditions: for Duration of swimming at day 28: 4-week administration 50 mg/kg
Method: Stimulatory effect on the duration of swimming in cold (2° C.) and normal (25° C.) water (Table 8.1-8.1.1) of Phenotropil (25 and 50 mg/kg) compared with the control (distilled water) and Benzedrine (2.5 mg/kg) was studied in white outbred male mice (18-26 g) compared to control (distilled water) when intraperitoneally administered, 60 min after the administration and with a course administration for 4 weeks administration on day 28 (Table 8.1.2). […] At normal temperature of water, the effect of Benzedrine was not modified and stayed at 34%.
The advantage of psychomodulator Phenotropil is obvious both with the single dose and the course use, by the effect on physical performance and stability of the body, both in normal and more adverse temperature conditions.

MDA = MDA (lipid peroxidation) in saliva after topical course; assay type: in vivo; conditions: human saliva after topical course treatment, 100 mg per 100 ml water
Source text: as §1, with “Simultaneous studies were conducted for evaluation of lipid peroxidation state in samples of saliva, at the baseline examination and after the course of therapy.” left out

[5] = 4-week administration 300 mg/kg
[6] = mice, Benzedrine 3 mg/kg + Phenotropil 50.0 mg/kg
[7] = mice, Benzedrine 3 mg/kg + Phenotropil 100.0 mg/kg
[8] = mice, Benzedrine 3 mg/kg + Phenotropil 300.0 mg/kg
[9] = mice, doses of 50 and 100 mg/kg (so in the source)

With NC(=O)CN1CC(c2ccccc2)CC1=O (racemic) [Compound 1, (RS)-2-(2-oxo-4-phenylpyrrolidine-1-yl)acetamide] the “reduction of hyperkinesia (head shakings)” value (“reduction of hyperkinesia” below) (mice [1]; 100 mg/kg) was 88%, the “reduction of hyperkinesia” value (mice [1]; 200 mg/kg) was 87% and the “reduction of hyperkinesia” value (mice [1]; 300 mg/kg) was 89%. For the same compound, the Number of shakings (mice [1]; 100 mg/kg) was 1.4 ± 0.5, the Number of shakings (mice [1]; 200 mg/kg) was 1.5 ± 0.8 and the Number of shakings (mice [1]; 300 mg/kg) was 1.2 ± 0.5. The “serum Ca” value ([2]; 4-week administration 50 mg/kg) was 4.21 ± 0.23 mEq/l, the “serum K” value ([2]; 4-week administration 50 mg/kg) was 3.15 ± 0.15 mEq/l and the “serum Na” value ([2]; 4-week administration 50 mg/kg) was 127.3 ± 2.71 mEq/l. For the same compound, the “serum Ca” value [2, 5] was 4.69 ± 0.24 mEq/l, the “serum K” value [2, 5] was 3.44 ± 0.20 mEq/l and the “serum Na” value [2, 5] was 125.7 ± 3.43 mEq/l. The “increase of NSP70 level in the myocardium vs Ns control” value (“increase of NSP70 level” for short) (HSP70; 25 mg/kg) was 38%, the “increase of NSP70 content in the heart vs untreated control” value (shortened to “increase of NSP70 content in the heart”) (HSP70; 25 mg/kg) was 65% and the “increase of NSP70 level” value (HSP70; 50 mg/kg) was 41.4%. The “increase of NSP70 content in the heart” value (HSP70; 50 mg/kg) was 82%, the “increase of NSP70 level” value (HSP70; 100 mg/kg) was 62% and the “increase of NSP70 content in the heart” value (HSP70; 100 mg/kg) was 73%. For the same compound, the “increase of NSP70 level” value (HSP70; 300 mg/kg) was 89.7%, the “increase of NSP70 content in the heart” value (HSP70; 300 mg/kg) was 273% and the “HSP 70 in myocardium” value (HSP70; 25 mg/kg i.p., normal conditions) was 0.18 ± 0.011 ng/mg total protein. For the same compound, the “HSP 70 in myocardium” value (HSP70; 50 mg/kg i.p., normal conditions) was 0.20 ± 0.014 ng/mg total protein, the “HSP 70 in myocardium” value (HSP70; 100 mg/kg i.p., normal conditions) was 0.19 ± 0.008 ng/mg total protein and the “HSP 70 in myocardium” value (HSP70; 300 mg/kg i.p., normal conditions) was 0.41 ± 0.016 ng/mg total protein. For the same compound, the “HSP 70 in myocardium” value (HSP70; Ns + 25 mg/kg i.p.) was 0.40 ± 0.02 ng/mg total protein, the “HSP 70 in myocardium” value (HSP70; Ns + 50 mg/kg i.p.) was 0.41 ± 0.03 ng/mg total protein and the “HSP 70 in myocardium” value (HSP70; Ns + 100 mg/kg i.p.) was 0.47 ± 0.02 ng/mg total protein. For the same compound, the “HSP 70 in myocardium” value (HSP70; Ns + 300 mg/kg i.p.) was 0.55 ± 0.03 ng/mg total protein, the “smokers who quit smoking at the third week of therapy” value (patients; 0.1-0.3% solution as dental trays, 30 days) was 25.0% and the “Efficacy on a 4-point scale (periodontal, enamel and dentin condition)” value (“Efficacy on a 4-point scale” below) (patients; Phenotropil 1%) was 2* (average degree of efficacy from 30.0 to 50.0%). For the same compound, the “Efficacy on a 4-point scale” value (patients; Phenotropil 2%) was 3* (high efficacy, above 50.0%), the “Efficacy on a 4-point scale” value (patients; Phenotropil 3%) was 3* (high efficacy, above 50.0%) and the “Number of pulses for 3 min.” value (mice [3]; [6]) was 126.0 ± 12.4. The “Number of stand-ups for 3 min.” value (mice [3]; [6]) was 15.9 ± 2.0, the “Number of pulses for 3 min.” value (mice [3]; [7]) was 129.2 ± 14.2 and the “Number of stand-ups for 3 min.” value (mice [3]; [7]) was 24.2 ± 4.8. For the same compound, the “Number of pulses for 3 min.” value (mice [3]; [8]) was 48.1 ± 9.4, the “Number of stand-ups for 3 min.” value (mice [3]; [8]) was 12.1 ± 4.6 and the “increase of orientation and exploratory behavior, horizontal component, vs control” value (mice [3]; [9]) was 240.0%. For the same compound, the “increase of orientation and exploratory behavior, vertical component, vs control” value (mice [3]; [9]) was 89.0%, the “reduction of psychostimulant effect of Benzedrine, horizontal component” value (mice [3]; single 300 mg/kg) was roughly 42.9% and the “reduction of psychostimulant effect of Benzedrine, vertical component” value (mice [3]; single 300 mg/kg) was 14.8%. For the same compound, the Duration of swimming (mice [4]; single dose 25 mg/kg i.p.) was 161.90 ± 15.00 min, the Duration of swimming (mice [4]; single dose 50 mg/kg i.p.) was 209.83 ± 14.85 min and the “Duration of swimming at day 28” value (mice [4]; water 2° C.) was 2.34 ± 0.15 min. The Duration of swimming (mice [4]; water 2° C., single dose 25 mg/kg i.p.) was 2.10 ± 0.17 min, the Duration of swimming (mice [4]; water 2° C., single dose 50 mg/kg i.p.) was 2.30 ± 0.22 min and the “Duration of swimming at day 28” value (mice [4]; water 25° C.) was 222.03 ± 10.95 min. The “Duration of swimming vs control” value (mice [4]; water 25° C., single dose 25 mg/kg i.p.) was “+35%” and the MDA content (MDA) was 0.026 ± 0.0415 nmol/L.

Source: patent US20140315972A1, “RS)-2-(2-oxo-4-phenylpyrrolidin-1-yl)acetamide compound having modulatory activity with a commensurate effect, pharmaceutical substance (variants) and its application, composition (variants) thereof” (priority 2011, published 2014)
